Measured values from paper PMC8235661, “Photoelectric Dye, NK-5962, as a Potential Drug for Preventing Retinal Neurons from Apoptosis: Pharmacokinetic Studies Based on Review of the Evidence” (Life, 2021).
Values joined by “and” are separate entries in the source; they are usually repeats but may differ in a detail not shown here. Equal entries are not always repeated. Where two headings read alike, the source gives them in different places.

Experiments:
[1] = Solubility assay in JP 1st and 2nd fluid; format: physicochemical
Experimental: The Japanese Pharmacopeia (JP) 1st fluid (pH 1.2) and JP 2nd fluid (pH 6.8) for dissolution testing were used for solubility measurements. The solution of a test compound was prepared by diluting 10 mM NK-5962 in 2 μL DMSO stock solution with 165 μL of JP 1st or 2nd fluid and then mixed at 37 °C for 4 h by rotation at 1000 rpm. After loading the mixed solution into 96-well MultiScreen Filter Plates (product number MSHVN4510, 0.45 μm hydrophilic PVDF membrane; Millipore, Bedford, MA, USA), filtration was performed by centrifugation. The filtrates were mixed with acetonitrile and analyzed by high-performance liquid chromatography-UV detection (HPLC-UV, 254 nm) or by liquid chromatography and tandem mass spectrometry (LC-MS/MS). Solubility was calculated by comparing the peak area of the filtrate mixture with that of a 100 μM standard solution.

[2] = Unbound fraction by equilibrium dialysis, medium containing 10% fetal bovine serum; format: in vitro ADME; settings: 1 μM, equilibrium dialysis 37 °C 4 h
Experimental: An equilibrium dialysis apparatus, Rapid Equilibrium Dialysis (RED) Device Single-Use Plate with Inserts, 8K MWCO (ThermoFisher Scientific, Waltham, MA, USA), was used to determine the unbound fraction for each compound in human plasma, rat plasma, and medium containing 10% fetal bovine serum (FBS). Plasma or medium was mixed with the test compound (1 μM) and 200 μL aliquots were loaded into the apparatus and dialyzed versus 350 μL of 100 mM phosphate buffer (pH 7.4) at 37 °C for 4 h by rotation at 1000 rpm. The unbound fraction was calculated as the ratio of receiver side (buffer) to donor side (plasma) concentrations.

[3] = In vivo pharmacokinetics, intravenous administration; set-up: species or system rat
Experimental: (§1) Male Sprague Dawley (SD) and Wistar rats (5-week old) were obtained from Charles River Laboratories Japan (Yokohama, Japan) and Japan SLC, Inc. (Hamamatsu, Japan), respectively. All animals were maintained in air-conditioned quarters with room temperatures of 20 ± 2 °C, relative humidity of 50 ± 10%, and an alternating 12 h light/dark cycle. The rats were fed a certified diet MF (Oriental Yeast Co., Tokyo, Japan) and water ad libitum. The studies were conducted in accordance with the guidelines provided by the Animal Care and Use Committee of Osaka University (Identifier DouyakuR01-3-1).
(§2) A test compound (NK-5962) solution in 50% DMSO/water was injected intravenously (i.v.) to male SD rats. A test compound suspension in 0.5% methyl cellulose was administered orally (p.o.) to male Wistar rats. The dosage of the test compound was 1 mg/2 mL/kg (i.v.) and 10 or 100 mg/10 mL/kg (p.o.). Blood samples were collected from the jugular vein at 5 and 15 min and 1 h (i.v.) by using pre-heparinized syringe after the intravenous administration or from the caudal vein at 15 and 30 min, 1, 2 and 4 h (p.o.) by using heparinized capillary tube after the oral administration. At 30 min and 2 h (i.v.) or 8 h (p.o.), blood samples were collected from the abdominal aorta under isoflurane anesthesia and the eye balls and the whole brain were excised immediately.
(§3) Plasma was prepared by centrifugation of the blood samples. Plasma and tissues were stored at −80 °C. The tissues were homogenized with a four-fold volume of phosphate-buffered saline to obtain a 20% tissue homogenate. Plasma and 20% tissue homogenates were precipitated with 4–20 volumes of acetonitrile/IS and centrifuged at 15,000× g at 4 °C for 10 min. The supernatants were analyzed by liquid chromatography and tandem mass spectrometry (LC-MS/MS). Standard non-compartmental analysis was performed to determine the pharmacokinetic parameters: elimination half-life (t1/2) and area under the concentration time curve from time zero to infinity (AUC∞). The absolute bioavailability (BA) of the oral dose was calculated as AUC∞ (p.o.)/AUC∞ (i.v.).
(§4) Liquid chromatography and tandem mass spectrometry instrument (LC-MS8060) equipped with Shimadzu Nexera series LC system (Shimadzu, Kyoto, Japan) were used. All compounds were analyzed in multi-reaction monitoring mode under electron spray ionization conditions. The analytical column used was a […] C18 MGIII (3 μm × 2.0 mmID × 35 mm; OSAKA SODA, Osaka, Japan) at 50 °C. The gradient mobile phase consisted of 0.1% formic acid in water (mobile phase A) and 0.1% formic acid in acetonitrile (mobile phase B) at a total flow rate of 1 mL/minute. The initial mobile phase composition was 10% B, which was held constant for 0.2 min, increased in a linear fashion to 90% B over 1 min, then held constant for 0.8 min, and then finally brought back to the initial condition of 10% B over 0.01 min and re-equilibrated for 1 min. The transitions (precursor ion > product ion) of NK-5962 and IS (methyl testosterone) are 433.2 > 279.2 and 303.1 > 109.1 (positive), respectively.

[4] = In vivo pharmacokinetics, oral administration; set-up: species or system rat; settings: for Kp at 8 h: eye ball / plasma, read-out: Eye Ball/Plasma Ratio(Kp); for bioavailability: oral, read-out: absolute bioavailability
Experimental: as §1, §2, §3, §4

Skin sensitization test = settings: in vivo
bacterial = experiment: Bacterial reverse mutation test
[5] = intravenous 1 mg/kg, 0.5 h, single rat, 1 mg/kg
[6] = intravenous 1 mg/kg, 2 h, single rat, 1 mg/kg

SMILES: CCCCN(CCCC)c1ccc(C=Cc2sc3ccccc3[n+]2CC(=O)O)cc1.[Br-] [NK-5962, 2-[2-[4-(dibutylamino)phenyl]ethenyl]-3-carboxymethylbenzothiazolium bromide]
- solubility at 4 h ([1]; JP 1st fluid pH 1.2, 37 °C, read-out: Solubility JP1 (pH 1.2)): 79 µM
- Solubility JP2 (pH 6.8) ([1]; JP 2nd fluid pH 6.8, 37 °C, 4 h): low
- solubility at 4 h ([1]; JP 2nd fluid pH 6.8, 37 °C, read-out: Solubility JP2 (pH 6.8)): 0.2 µM
- Protein-Binding (Non-Binding Ratio) 10% Fetal Bovine Serum [2]: 0.34
- Plasma Concentration ([3]; intravenous 1 mg/kg, 0.083 h, single rat, 1 mg/kg): 648 nM
- Plasma Concentration ([3]; intravenous 1 mg/kg, 0.25 h, single rat, 1 mg/kg): 342 nM
- Eye Ball/ Plasma Ratio [3, 5]: 0.045
- Plasma Concentration [3, 5]: 569 nM
- concentration at 2 h ([3]; intravenous 1 mg/kg, 0.5 h, single rat, 1 mg/kg, read-out: Eye Ball Concentration): 25.5 nM
- Plasma Concentration ([3]; intravenous 1 mg/kg, 1 h, single rat, 1 mg/kg): 34.6 nM
- Eye Ball/ Plasma Ratio [3, 6]: 0.16
- Plasma Concentration [3, 6]: 22.0 nM
- concentration at 2 h ([3]; intravenous 1 mg/kg, 2 h, single rat, 1 mg/kg, read-out: Eye Ball Concentration): 3.42 nM
- Kp at 0.5 h ([3]; male, Sprague Dawley, rat, eye ball / plasma, iv, 1 mg/kg, intravenous 1 mg/kg, 0.5 h, single rat, read-out: Eye Ball/ Plasma Ratio): 0.052
- Kp at 2 h ([3]; male, Sprague Dawley, rat, eye ball / plasma, iv, 1 mg/kg, intravenous 1 mg/kg, 2 h, single rat, read-out: Eye Ball/ Plasma Ratio): 0.17
- concentration at 0.5 h ([3]; male, Sprague Dawley, rat, eye ball, iv, 1 mg/kg, intravenous 1 mg/kg, 0.5 h (30 min), read-out: Mean Eye Ball Concentration): 29.8 nM
- concentration at 0.5 h ([3]; male, Sprague Dawley, rat, eye ball, iv, 1 mg/kg, intravenous 1 mg/kg, 0.5 h, single rat, read-out: Eye Ball Concentration): 34.1 nM
- concentration at 2 h ([3]; male, Sprague Dawley, rat, eye ball, iv, 1 mg/kg, intravenous 1 mg/kg, 2 h, single rat, read-out: Eye Ball Concentration): 4.16 nM
- concentration at 2 h ([3]; male, Sprague Dawley, rat, eye ball, iv, 1 mg/kg, intravenous 1 mg/kg, 2 h, read-out: Mean Eye Ball Concentration): 3.79 nM
- concentration at 0.083 h ([3]; male, Sprague Dawley, rat, plasma, iv, 1 mg/kg, intravenous 1 mg/kg, 0.083 h, single rat): 779 nM
- concentration at 0.25 h ([3]; male, Sprague Dawley, rat, plasma, iv, 1 mg/kg, intravenous 1 mg/kg, 0.25 h, single rat): 511 nM
- concentration at 0.5 h ([3]; male, Sprague Dawley, rat, plasma, iv, 1 mg/kg, intravenous 1 mg/kg, 0.5 h, single rat, read-out: Plasma Concentration): 661 nM
- concentration at 1 h ([3]; male, Sprague Dawley, rat, plasma, iv, 1 mg/kg, intravenous 1 mg/kg, 1 h, single rat): 49.9 nM
- concentration at 2 h ([3]; male, Sprague Dawley, rat, plasma, iv, 1 mg/kg, intravenous 1 mg/kg, 2 h, single rat, read-out: Plasma Concentration): 24.3 nM
- half-life ([3]; male, Sprague Dawley, rat, plasma, intravenous 1 mg/kg body weight, rats): 21 min
- maximum plasma concentration after the oral administration ([4]; excluding the 8 h values suspected of contamination): 17 nM
- maximum eye ball concentration expected after oral administration ([4]; from maximum plasma concentration and eye ball/plasma ratio 0.072): 1.3 nM
- Kp at 8 h ([4]; male, Wistar, oral 10 mg/kg, single rat): < 0.059
- Kp at 8 h ([4]; male, Wistar, oral 100 mg/kg, single rat): 0.072
- concentration at 8 h ([4]; male, Wistar, rat, eye ball, po, 10 mg/kg, oral 10 mg/kg, single rat, read-out: Eye Ball Concentration): < 0.1 nM
- concentration at 8 h ([4]; male, Wistar, rat, eye ball, po, 100 mg/kg, oral 100 mg/kg, single rat, read-out: Eye Ball Concentration): 0.33 nM
- bioavailability ([4]; male, Wistar, rat, plasma, 10 mg/kg): < 1%
- bioavailability ([4]; male, Wistar, rat, plasma, 100 mg/kg): < 1%
- concentration at 0.25 h ([4]; male, Wistar, rat, plasma, po, 10 mg/kg, oral 10 mg/kg, 0.25 h, single rat): 2.42 nM
- concentration at 0.5 h ([4]; male, Wistar, rat, plasma, po, 10 mg/kg, oral 10 mg/kg, 0.5 h, single rat): 1.51 nM
- concentration at 1 h ([4]; male, Wistar, rat, plasma, po, 10 mg/kg, oral 10 mg/kg, 1 h, single rat): 2.11 nM
- concentration at 2 h ([4]; male, Wistar, rat, plasma, po, 10 mg/kg, oral 10 mg/kg, 2 h, single rat): 1.76 nM
- concentration at 4 h ([4]; male, Wistar, rat, plasma, po, 10 mg/kg, oral 10 mg/kg, 4 h, single rat): 0.8 nM
- concentration at 8 h ([4]; male, Wistar, rat, plasma, po, 10 mg/kg, oral 10 mg/kg, single rat, * value deemed erroneous by contamination, read-out: Plasma Concentration): 1.69 nM
- concentration at 0.25 h ([4]; male, Wistar, rat, plasma, po, 100 mg/kg, oral 100 mg/kg, 0.25 h, single rat): 11.7 nM
- concentration at 0.5 h ([4]; male, Wistar, rat, plasma, po, 100 mg/kg, oral 100 mg/kg, 0.5 h, single rat): 14.6 nM
- concentration at 1 h ([4]; male, Wistar, rat, plasma, po, 100 mg/kg, oral 100 mg/kg, 1 h, single rat): 17 nM
- concentration at 2 h ([4]; male, Wistar, rat, plasma, po, 100 mg/kg, oral 100 mg/kg, 2 h, single rat): 17.2 nM
- concentration at 8 h ([4]; male, Wistar, rat, plasma, po, 100 mg/kg, oral 100 mg/kg, single rat, * value deemed erroneous by contamination, read-out: Plasma Concentration): 4.57 nM
- Plasma Concentration ([4]; oral 10 mg/kg, 0.25 h, single rat, 10 mg/kg): 1.71 nM
- Plasma Concentration ([4]; oral 10 mg/kg, 0.5 h, single rat, 10 mg/kg): 1.90 nM
- Plasma Concentration ([4]; oral 10 mg/kg, 1 h, single rat, 10 mg/kg): 2.26 nM
- Plasma Concentration ([4]; oral 10 mg/kg, 2 h, single rat, 10 mg/kg): 1.51 nM
- Plasma Concentration ([4]; oral 10 mg/kg, 4 h, single rat, 10 mg/kg): 1.20 nM
- Plasma Concentration ([4]; oral 100 mg/kg, 0.25 h, single rat, 100 mg/kg): 6.17 nM
- Plasma Concentration ([4]; oral 100 mg/kg, 0.5 h, single rat, 100 mg/kg): 11.15 nM
- Plasma Concentration ([4]; oral 100 mg/kg, 1 h, single rat, 100 mg/kg): 17.43 nM
- Plasma Concentration ([4]; oral 100 mg/kg, 2 h, single rat, 100 mg/kg): 11.51 nM
- Plasma Concentration ([4]; oral 100 mg/kg, 4 h, single rat, 100 mg/kg): 11.52 nM and 5.75 nM
- concentration at 8 h ([4]; oral 100 mg/kg, single rat, 100 mg/kg, read-out: Eye Ball Concentration): 0.40 nM
- toxicity in the skin sensitization test (Skin sensitization test): not toxic
- genetic toxicity, bacterial reverse mutation test (bacterial): not toxic
